Experimental data from publication PMC9586926, “An efflux-susceptible antibiotic-adjuvant with systemic efficacy against mouse infections” (Scientific Reports, 2022).
pIC50: −log10 of the molar value. In brackets after ≈: the same amount, converted by molar mass. Where a SMILES comes first, the peptide text is derived from it. [ ]: non-standard residue; d: D form. The star is where a group is joined. 12Ado = NCCCCCCCCCCCC(=O)O; Decanoyl = CCCCCCCCCC(=O)*; Dap = NC[C@H](N)C(=O)O

Key:
[1] = test system: S. Typhimurium 14028ΔAcrAB; settings: cited from earlier work
Text: Table 2 Effect of RND pumps on growth-inhibitory activity. | column: MIC^a (µM) in LB / S. Typhimurium / Mutant

[2] = test system: E. coli Ag100a (ΔacrAB); settings: cited from earlier work
Text: Table 2 Effect of RND pumps on growth-inhibitory activity. | column: MIC^a (µM) in LB / E. coli / Mutant

[3] = test system: A. baumannii; assay: MIC, broth microdilution; assay type: cell-based, Acinetobacter baumannii; settings: broth microdilution in LB, 18–24 h, 37 °C; n = 1 strain
Text: (§1) Bacteria used in this study consisted of standard American Type Culture Collection (ATCC; Biological Industries, Beit Haemek, Israel) strains, clinically isolated (CI; Sourasky Medical Center, Tel Aviv, Israel) strains, as well as isogenic mutant strains. Gram-negative bacteria included Acinetobacter baumannii ATCC 19606; Escherichia coli ATCC 25922, 35218, CFT073, CI 14384, 16327, and the isogenic pair Ag100 (wild-type) and its efflux deficient mutant Ag100a (ΔacrAB); Klebsiella pneumoniae CI 1287, 224; Pseudomonas aeruginosa ATCC 27853, CI 1278, 8634; Salmonella enterica serovar Typhimurium ATCC 14028 (wild-type) and its isogenic efflux deficient mutant ΔacrAB. Bacteria were grown in Luria–Bertani broth (LB; 5 g/l NaCl, 5 g/l yeast extract, 10 g/l tryptone; pH = 7.0) at 37 °C with shaking. Over-night cultures were diluted 10-folds into fresh growth-medium and incubated at 37 °C with shaking until reaching mid-logarithmic phase. Then, bacterial concentrations were adjusted using O.D.600 nm measurements, and bacteria were subjected to the experimental procedures listed herein.
(§2) MIC was determined according to the broth microdilution method: antimicrobials were subjected to serial twofold dilutions in LB medium, and incubated with 5 × 10^5 CFU/ml of bacteria (final volume of 200 µl) for 18–24 h at 37 °C. Then, O.D.620 nm was measured (BioTek Instruments Synergy HT; Winooski, VT, USA), and the MIC was defined as the lowest antimicrobial concentration for which no increase in O.D.620 nm was evident, compared to the untreated control.

[4] = test system: HEK-293FT; assay: Cytotoxicity, Alamar blue; assay type: cell-based, human; settings: 24 h incubation, read-out: IC50 HEK-293FT (50% inhibition of cells respiration)
Method: (§3) Cell lines used in this study included murine RAW 264.7 macrophages and human embryonic kidney HEK-293FT cells (ATCC, Biological Industries, Beit Haemek, Israel). Cells were grown in Dulbecco’s modified eagle medium (DMEM) containing […] glucose, L-glutamine, sodium bicarbonate and sodium pyruvate, supplemented with 10% fetal bovine serum and pen-strep, at 37 °C and 5% CO2.
(§4) Lipopeptides cytotoxicity was determined using fluorescent measurements of reduced resazurin. 2 × 10^4 cells were first cultured in 96-well plates over-night (final volume of 100 µl) at 37 °C and 5% CO2. Then, the medium was removed and cells were incubated for an additional 24 h with serial twofold dilutions of the lipopeptides in growth medium. Then, 10 µl of Alamar blue were added and plates were incubated for 3 h, after which fluorescence (excitation: 530 nm; emission: 590 nm) of the reduced resazurin was recorded (BioTek Instruments Synergy HT; Winooski, VT, USA).

[5] = test system: E. coli 25922; settings: same assessment tools; cited from earlier work
Text: To our knowledge, the finding of an adjuvant whose activity is enhanced—rather than repressed—after efflux, is hitherto unreported. One might ask, at this point: If the K-, O and B-based analogs are efflux substrates (as implied by MIC data, Table 2), how come only C10BBc12B is positively affected by efflux?

[6] = test system: murine RBC; assay: Hemolysis; assay type: cell-based; settings: 1% hematocrit murine RBC, 3 h, 37 °C
Method: Permeabilization of red blood cells (RBC) was evaluated using absorbance measurements of extracellular hemoglobin. Serial twofold dilutions of lipopeptides were incubated with 1% hematocrit of murine RBC for 3 h at 37 °C with shaking. Samples were then centrifuged at 20,000 RCF for 5 min, and absorbance of the supernatants was measured at 450 nm (BioTek Instruments Synergy HT; Winooski, VT, USA). Percent hemolysis was then calculated by (AS − AN)/(AP − AN) × 100; where AS, AN, and AP represent the absorbance of the sample, negative control (PBS) and positive control (Milli-Q water), respectively. LC50 values were extracted from trend-lines generated for linear-regions of plots correlating lipopeptide concentrations and percent hemolysis.

[7] = test system: E. coli; assay: MIC, broth microdilution; assay type: cell-based, Escherichia coli; settings: broth microdilution in LB, 18–24 h, 37 °C; n = 4 strains; published data in bold (not discernible)
Text: as §1, §2

[8] = test system: P. aeruginosa; assay: MIC, broth microdilution; assay type: cell-based, Pseudomonas aeruginosa; settings: broth microdilution in LB, 18–24 h, 37 °C; n = 3 strains
Text: as §1, §2

[9] = test system: S. Typhimurium 14028 (wild-type); settings: cited from earlier work
Text: Table 2 Effect of RND pumps on growth-inhibitory activity. | column: MIC^a (µM) in LB / S. Typhimurium / Wild-Type

[10] = test system: K. pneumoniae; assay: MIC, broth microdilution; assay type: cell-based, Klebsiella pneumoniae; settings: broth microdilution in LB, 18–24 h, 37 °C; n = 2 strains
Text: as §1, §2

[11] = test system: RAW 264.7; assay: Cytotoxicity, Alamar blue; assay type: cell-based, murine; settings: 24 h incubation, read-out: IC50 RAW 264.7 (50% inhibition of cells respiration)
Method: as §3, §4

[12] = test system: E. coli Ag100 (wild-type); settings: cited from earlier work
Text: Table 2 Effect of RND pumps on growth-inhibitory activity. | column: MIC^a (µM) in LB / E. coli / Wild-Type

[13] = test system: Gram-negative ESKAPE pathogens; assay: MIC against 10 bacterial strains of the four Gram-negative ESKAPE species; assay type: cell-based
Text: as §1
MIC was determined according to the broth microdilution method: antimicrobials were subjected to serial twofold dilutions in LB medium, and incubated with 5 × 10^5 CFU/ml of bacteria (final volume of 200 µl) for 18–24 h at 37 °C. […]

[14] = design: method as in PMID 20480482; settings: cited from earlier work
[15] = test system: K. pneumoniae 1287; assay: Combination with antibiotics, modified checkerboard titration; assay type: cell-based, Klebsiella pneumoniae
Method: as §2
(§5) Lipopeptides and antibiotics combinations were assessed using a modified version of the checkerboard titration method: Antibiotics MIC was determined in LB medium containing sub-inhibitory lipopeptide concentrations. The sensitization factor (SF)[46] was then calculated by SF = MICA/MICC, where “MICA” is the antibiotic MIC in absence of an adjuvant and “MICC “ is the antibiotic MIC in presence of an adjuvant, for a specified adjuvant concentration. Combinations were classified as synergistic when antibiotics MIC were decreased by > 4 folds. Alternatively, the fractional inhibitory concentration index (FICI) was calculated by FICI = MICC1/MICA1 + MICC2/MICA2, where “MICC1” and “MICC2” respectively specify the antibiotic and the adjuvant MIC values upon their combination, whereas “MICA1” and “MICA2” respectively specify the antibiotic and the adjuvant MIC values when tested individually. Combinations were classified as synergistic for FICI < 0.5.

[16] = test system: E. coli 25922; assay type: cell-based, Escherichia coli; settings: E. coli
Method: as §2, §5

[17] = test system: E. coli 25922; assay: Growth / time-kill kinetics; assay type: cell-based, Escherichia coli; settings: 10 µM C10BBc12B, 1 µg/ml erythromycin or 20 ng/ml rifampin alone
Method: Antimicrobials mode of action was determined according to the rate of bacterial killing. Varying concentrations of lipopeptides, antibiotics and combinations thereof were mixed in LB medium with 5 × 10^5 CFU/ml of bacteria (final volume of 1 ml) and incubated at 37 °C with shaking. At the designated time-points aliquots were serially tenfold diluted in saline, plated on LB agar, and incubated over-night at 37 °C for enumeration.

[18] = test system: UPEC CFT073; assay: Urinary-tract infection model; assay type: in vivo, mice; settings: 24 h post-infection; 2 mg/kg rifampin, 7.5 mg/kg q.i.d. C10BBc12B or both; n = 5
Method: (§6) The study is reported in accordance with ARRIVE guidelines.
(§7) Lipopeptides potential application in monotherapy and/or combination-therapies was explored with two infection models. In the peritonitis-sepsis model, mice (n = 10 per group) were first rendered neutropenic by two intraperitoneal (I.P.) injections of 0.3 ml containing 150 mg/kg and 100 mg/kg cyclophosphamide, administered 4 days and 1 day before the experiment, respectively. […] Mice survival was recorded for up to 7 days. In a variant assay, bacteria in PBS (1.4 × 10^6) were pre-treated with 10 µM lipopeptides for 15 min, similarly administered, and mice survival was recorded for up to 3 days. In the urinary-tract infection (UTI) model, mice (N = 5 mice per group) were anesthetized by a single I.P. injection (0.2 ml) containing a mixture of ketamine (100 mg/kg) and xylazine (5 mg/kg). Following application of an analgesic 2% lidocaine gel on their penises, mice were infected intra-urethraly using a 24-gauge catheter with 1.2 × 10^8 CFU/mouse (0.05 ml) and treated with the vehicle control (S.C., 1 h post-infection), 2 mg/kg rifampin (oral gavage, immediately before anesthesia), 7.5 mg/kg q.i.d. lipopeptides (S.C., starting 1 h post-infection), or both. Mice were sacrificed 24 h post-infection, their bladder and kidneys aseptically excised, suspended in 5 ml of sterile PBS, homogenized for 3 min using a bench-top homogenizer, serially tenfold diluted in saline, plated on LB agar, and incubated over-night at 37 °C for enumeration.

[19] = test system: E. coli 25922; assay: Peritonitis-sepsis infection model in neutropenic mice; assay type: in vivo; settings: n = 10
Method: as §6, §7

[20] = test system: A. baumannii 19606; assay: Selective pressure, MIC evolution over 15 consecutive subcultures; settings: in absence of C10BBc12B
Method: The likelihood of antimicrobial-resistance development was assessed by recording MIC changes upon consecutive rounds of antimicrobials application, as in the MIC assay. Following each round, bacteria from wells corresponding to ½ of the resulting MIC were regrown in fresh media to mid-logarithmic phase and subjected to the same procedure for 15 consecutive days[66].

SMILES | MIC (µM) in LB, S. Typhimurium Mutant [1] | MIC (µM) in LB, E. coli Mutant [2] | MIC A. baumannii (n=1) [3] | pIC50 [4] | LC50 Erythrocytes (50% hemolysis) [6] | MIC E. coli (n=4) [7] | MIC (µM) in LB, S. Typhimurium Wild-Type [9] | MIC K. pneumoniae (n=2) [10] | pIC50 [11] | MIC (µM) in LB, E. coli Wild-Type [12] | effect on bacterial proliferation, individual agent [17] | antibiotic MIC after 15 consecutive subcultures [20] | antibiotic MIC before subculturing [20] | other results
CCCCCCCCCC(=O)N[C@@H](CCCCN)C(=O)N[C@@H](CCCCN)C(=O)NCCCCCCCCCCCC(=O)N[C@@H](CCCCN)C(N)=O [C10KKc12K] (Decanoyl-KK[12Ado]K-NH2) | 25 µM (≈ 18.8 µg/mL) | 6.2 µM (≈ 4.67 µg/mL) | > 50 µM | < 4.30 | > 50 µM | ≥ 50 µM | > 50 µM | ≥ 50 µM | < 4.30 | > 50 µM | – | – | – | CM depolarization [5]: interact with the CM to the point of inducing its depolarization; MIC P. aeruginosa (n=3) [8]: > 50 µM
CCCCCCCCCC(=O)N[C@@H](CN)C(=O)N[C@@H](CN)C(=O)NCCCCCCCCCCCC(=O)N[C@@H](CN)C(N)=O [C10PPc12P] (Decanoyl-[Dap][Dap][12Ado][Dap]-NH2) | – | – | > 50 µM | < 4.30 | 26 µM | 12.5 to 25 µM | – | ≥ 50 µM | < 4.30 | – | – | – | – | MIC [13]: occasionally presented somewhat lower MIC values; side-chain β-NH2 group pKa [14]: 6.3
CO[C@H]1/C=C/O[C@@]2(C)Oc3c(C)c(O)c4c(O)c(c(/C=N/N5CCN(C)CC5)c(O)c4c3C2=O)NC(=O)/C(C)=C\C=C\[C@H](C)[C@H](O)[C@@H](C)[C@@H](O)[C@@H](C)[C@H](OC(C)=O)[C@@H]1C [Rifampin, reference compound] | 19.4 µM (≈ 16 µg/mL) | 19.4 µM (≈ 16 µg/mL) | – | – | – | – | 19.4 µM (≈ 16 µg/mL) | – | – | 19.4 µM (≈ 16 µg/mL) | unable to significantly alter bacterial proliferation | 8 µg/mL | 2 mg/L | antibiotic MIC in presence of C10BBc12B [15]: below 1 ng/ml; antibiotic MIC in presence of C10BBc12B [16]: below 1 ng/ml; bladder bacterial load [18]: no reduction in bacterial load; survival rate, monotherapy ([19]; 1.7 × 10^6 CFU/mouse, […] C10BBc12B S.C. 1 h post-infection or 20 mg/kg rifampin oral gavage): 50%; efficacy, monotherapy, higher inoculum ([19]; 1.9 × 10^6 CFU/mouse, […] C10BBc12B S.C. or 20 mg/kg rifampin oral): virtually no efficacy
CC[C@H]1OC(=O)[C@H](C)[C@@H](O[C@H]2C[C@@](C)(OC)[C@@H](O)[C@H](C)O2)[C@H](C)[C@@H](O[C@@H]2O[C@H](C)C[C@H](N(C)C)[C@H]2O)[C@](C)(O)C[C@@H](C)C(=O)[C@H](C)[C@@H](O)[C@]1(C)O [Erythromycin] | 6.8 µM (≈ 4.99 µg/mL) | 10.9 µM (≈ 8 µg/mL) | – | – | – | – | > 50 µM | – | – | > 50 µM | unable to significantly alter bacterial proliferation | 8,192 µg/ml | 64 mg/L | antibiotic inhibitory concentration in absence of adjuvant [15]: 512 µg/mL; antibiotic inhibitory concentration in presence of C10BBc12B [15]: 0.250 µg/mL
